Assay results from patent US20080261994A1, “CYCLOPROPANE COMPOUNDS AND PHARMACEUTICAL USE THEREOF” (Japan Tobacco Inc., priority 2003, published 2008).
Read-outs that look alike come from different tables or passages of the source.

Key:
Type in all cases: biochemical
[1] = target: T1, Recombinant Human MMP-13 (Homo sapiens, UniProt P45452); test: MMP-13 inhibitory activity (MMP-13 specific fluorescent substrate with quencher)
T1 construct: purchased R&D systems 511-MM
Summary of the method: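 Recombinant human MMP-13 with test compound, reaction started with quenched fluorogenic peptide 7-MCA-Pro-CHA-Gly-NVal-His-Ala-DPA in Tris-HCl buffer, 1 h at 25 °C, stopped with acetic acid. Fluorescence at Ex 325/Em 405 nm; % inhibition versus enzyme-free and inhibitor-free wells, reported as IC50 (μM).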

[2] = target: T2, aggrecanase-1 (Homo sapiens, UniProt O75173); test: Aggrecanase-1 inhibitory action (Particle Assay, GAG release from aggrecan-containing polyacrylamide particles)
T2 sequence (O75173 213-837): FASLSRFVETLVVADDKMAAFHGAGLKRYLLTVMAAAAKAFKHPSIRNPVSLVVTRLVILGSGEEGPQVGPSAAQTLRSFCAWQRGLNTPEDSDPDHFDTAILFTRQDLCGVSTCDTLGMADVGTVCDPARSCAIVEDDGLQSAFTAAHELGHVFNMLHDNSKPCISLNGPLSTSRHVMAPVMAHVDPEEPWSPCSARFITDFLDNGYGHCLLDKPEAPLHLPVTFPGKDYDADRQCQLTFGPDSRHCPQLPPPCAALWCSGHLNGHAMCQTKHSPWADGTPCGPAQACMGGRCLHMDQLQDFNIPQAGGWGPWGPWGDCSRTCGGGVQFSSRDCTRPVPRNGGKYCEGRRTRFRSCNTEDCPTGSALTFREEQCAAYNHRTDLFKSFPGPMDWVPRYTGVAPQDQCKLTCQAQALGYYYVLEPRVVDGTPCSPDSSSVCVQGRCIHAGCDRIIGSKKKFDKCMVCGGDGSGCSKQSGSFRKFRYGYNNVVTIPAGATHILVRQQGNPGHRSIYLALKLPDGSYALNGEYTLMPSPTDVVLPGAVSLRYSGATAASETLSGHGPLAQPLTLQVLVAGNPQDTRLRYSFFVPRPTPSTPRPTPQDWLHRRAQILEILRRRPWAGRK
Summary of the method: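 Enzyme and compound incubated with aggrecan-containing polyacrylamide particles in Tris-HCl buffer at 37° C for 15 h. Released GAG in supernatant measured with 1,9-dimethylmethylene blue at 595 nm against chondroitin sulfate standard; % inhibition from enzyme-free and inhibitor-free wells, reported as TC50 (μM).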

[3] = target: T3, MMP-1 (Homo sapiens, UniProt P03956); test: MMP-1 inhibitory action (Type I collagen Activity Measurement kit, FITC-labeled collagen type I)
T3 sequence (P03956 100-469): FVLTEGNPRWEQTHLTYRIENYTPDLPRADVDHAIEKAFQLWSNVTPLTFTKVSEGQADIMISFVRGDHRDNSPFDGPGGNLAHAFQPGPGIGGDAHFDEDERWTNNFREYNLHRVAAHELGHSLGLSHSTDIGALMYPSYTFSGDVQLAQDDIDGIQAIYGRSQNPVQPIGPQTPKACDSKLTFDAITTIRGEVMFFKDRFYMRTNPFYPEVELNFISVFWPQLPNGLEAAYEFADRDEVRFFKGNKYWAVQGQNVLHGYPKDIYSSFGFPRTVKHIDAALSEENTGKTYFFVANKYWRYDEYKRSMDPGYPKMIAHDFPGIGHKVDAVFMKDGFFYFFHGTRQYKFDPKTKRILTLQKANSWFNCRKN

[4] = Experimental Example 3, read-out: IC50 MMP13
[5] = Experimental Example 1, read-out: IC50 AG1
[6] = Experimental Example 2, read-out: IC50 MMP1
[7] = Recombinant Human MMP-13, fluorescent substrate, 25° C. for 1 h, read-out: IC50 MMP13 (Experimental Example 3)
[8] = aggrecanase-1 inhibitory action, read-out: IC50 AG1 (Experimental Example 1)
[9] = MMP-1 inhibitory action, FITC-labeled collagen type I, 37° C. for 3 hr, read-out: IC50 MMP1 (Experimental Example 2)

SMILES	IC50 [1, 4]	IC50 [2, 5]	IC50 [3, 6]	IC50 [1, 7]	IC50 [2, 8]	IC50 [3, 9]
C[C@]1(c2ccccc2)C[C@@]1(NS(=O)(=O)c1ccc(-c2ccc(O)c(F)c2)s1)C(=O)O [Example 2-589]	≥ 1000 nM	< 1000 nM	≥ 1000 nM	–	–	–
CC1[C@H](c2ccccc2)[C@]1(NS(=O)(=O)c1ccc(-n2cc(I)cn2)s1)C(=O)O (stereo partly drawn) [Example 2-543]	< 100 nM	< 100 nM	< 100 nM	–	–	–
CC1C(NS(=O)(=O)c2ccc(-c3cc(C(F)(F)F)on3)s2)(C(=O)O)C1(C)c1ccccc1 (stereo not drawn) [Example 2-598]	< 1000 nM	< 100 nM	≥ 1000 nM	–	–	–
CC(=O)NCCCC1(c2ccccc2)CC1(NS(=O)(=O)c1ccc(-c2ccc(Cl)cc2)s1)C(=O)O (stereo not drawn) [Example 2-272]	< 100 nM	< 100 nM	≥ 10000 nM	–	–	–
CCNC(=O)c1ccc(S(=O)(=O)NC2(C(=O)O)CC2c2ccccc2)s1 (stereo not drawn) [Example 2-104]	–	–	–	≥ 10000 nM	≥ 10000 nM	≥ 10000 nM
Cc1cc(C2CC2(NS(=O)(=O)c2ccc(-c3cc(C(F)(F)F)on3)s2)C(=O)O)on1 (stereo not drawn) [Example 2-311]	< 1000 nM	< 1000 nM	≥ 1000 nM	–	–	–
O=C(OCCCc1ccccc1C1CC1(NS(=O)(=O)c1ccc(-c2cc(C(F)(F)F)on2)s1)C(=O)O)N1CCOCC1 (stereo not drawn) [Example 2-253]	–	–	–	< 100 nM	< 100 nM	≥ 1000 nM
O=C(Nc1cccc(C2CC2(NS(=O)(=O)c2ccc(-c3ccc(Cl)cc3)cc2)C(=O)O)c1)c1cccnc1 (stereo not drawn) [Example 1-64]	–	–	–	< 100 nM	< 1000 nM	≥ 1000 nM
CC1[C@H](c2ccccc2)[C@]1(NS(=O)(=O)N1CCC(Oc2ccc(Cl)cc2)C1)C(=O)O (stereo partly drawn) [Example 2-500]	< 1000 nM	≥ 1000 nM	≥ 1000 nM	–	–	–
O=C(NO)C1(NS(=O)(=O)c2ccc(OCc3ccc(Cl)cc3Cl)cc2)C2CCc3ccccc3C21 (stereo not drawn) [Example 2-360]	< 1000 nM	< 100 nM	≥ 10000 nM	–	–	–
O=C(NC[C@H]1CCCO1)OCC1(c2ccccc2)CC1(NS(=O)(=O)c1ccc(-c2cc(C(F)(F)F)on2)s1)C(=O)O (stereo partly drawn) [Example 2-309]	< 1000 nM	< 1000 nM	≥ 1000 nM	–	–	–
O=C(O)C1(CS(=O)(=O)N2CCN(c3ccc(Cl)cc3)CC2)CC1c1ccccc1 (stereo not drawn) [Example 2-186]	–	–	–	≥ 1000 nM	≥ 1000 nM	≥ 10000 nM
CC(=O)N1CC=C(c2ccc(S(=O)(=O)N[C@@]3(C(=O)O)C[C@@H]3c3ccccc3)s2)CC1 [Example 2-177]	–	–	–	≥ 1000 nM	≥ 1000 nM	≥ 10000 nM
O=C(O)[C@]1(NS(=O)(=O)c2ccc(-c3noc(C(F)(F)F)n3)s2)C[C@@H]1c1ccccc1 [Example 2-44]	–	–	–	≥ 1000 nM	≥ 1000 nM	≥ 10000 nM
CC1C(c2ccccc2)C1(NS(=O)(=O)c1ccc(-c2cccc(O)c2)s1)C(=O)O (stereo not drawn) [Example 2-509]	< 100 nM	< 1000 nM	≥ 1000 nM	–	–	–
CC1[C@H](c2ccccc2)[C@]1(NS(=O)(=O)c1ccc(-c2ccc(Cl)cc2)s1)C(=O)O (stereo partly drawn) [Example 2-262]	–	–	–	< 100 nM	< 100 nM	< 1000 nM
O=C(O)C1(NS(=O)(=O)c2ccc(-c3cc(C(F)(F)F)on3)s2)CC1c1ccccc1CCCO (stereo not drawn) [Example 2-252]	–	–	–	< 1000 nM	< 100 nM	≥ 1000 nM
O=C(O)[C@]1(NS(=O)(=O)c2ccc(-n3cc(C(F)(F)F)cn3)nc2)C[C@@H]1c1ccccc1 [Example 2-558]	< 1000 nM	≥ 1000 nM	≥ 1000 nM	–	–	–
O=C(O)C1(NS(=O)(=O)c2ccc3c(c2)Cc2cc(Cl)ccc2-3)CC1c1ccccc1 (stereo not drawn) [Example 1-94]	–	–	–	< 100 nM	< 100 nM	≥ 1000 nM
CC1[C@H](c2ccccc2)[C@]1(NS(=O)(=O)N1CCN(c2ccc(Cl)cc2)C(=O)C1)C(=O)O (stereo partly drawn) [Example 2-502]	≥ 1000 nM	≥ 1000 nM	≥ 1000 nM	–	–	–
